The series is classed as physicochemical. On the procedure:
The degradation products of Example 1, recovered after three hours of hydrolysis, were evaluated as antioxidants and thermal stabilizers for PVC, low density polyethylene (LDPE), and polyvinyl alcohol (PVA) to evaluate the anti-oxidation efficiency using thermal analysis techniques (DSC, TGA, and DTG). The thermooxidative enthalpy change from DSC curves (e.g. FIGS. 1-3) and the % of HCl loss as a function of temperature represent the stability of polyethylene and PVC respectively.
The mechanism of stabilizing PVC is based on capturing the evolved HCl from dehydrochlorination by the metal ions and the transition metal, accordingly deactivating the catalytic role of HCl in the thermal decomposition.

With fulvic acid, the “Stability compared with the PVC control polymer” value is reported as “more stable than the PVC control polymer”.

Source of the values: US20160066603A1, “FULVIC ACID AND DERIVATIVES AND METHODS OF PREPARATION AND USE” (EMPIRE TECHNOLOGY DEVELOPMENT LLC, priority 2013, published 2016).
